The data set can be described thus: recombinant barcode read abundance after kanamycin selection (control-corrected) (log10(CPM+1)); higher = more efficient recombination; sequences stand for … in AGTGCAGAGAAAATCGGCCAGTTTTCTCTGCCTGCAGTCCGCATGCCGT…AGATTTATGCAGCGGACTGCCTTTCTCCCAAAGTGATAAACCGGACAGTATCATGGACCGGTTTTCCCGGTAATCCGTATTTGCAAGGTTGGTTTCACT; site = the 11-nt target. In short, it runs like this:
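This pooled E. coli screen matched targets with IS621 bridge RNA target-binding loops. Plating was done in duplicate on chloramphenicol/ampicillin LB agar as a control and on chloramphenicol/ampicillin/kanamycin plus 0.1 mM IPTG. Recombination efficiency reflects barcode counts at recombinant junctions as counts per million, averaged and control-corrected. The figures are log10(CPM+1).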
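Note: IS621 recombinase and bridge RNA in Escherichia coli cells.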

Consider “GTGAACCCTTGGGTTCTAACCTGTTGCAG (site GTGATCCCTCT)”, for which the “recombinant barcode read abundance (log10)” value was found to be 0.0104.

For the sequence “GTGAAGACTTGGGTTCTAACCTGTTGCTT (site AACGTACCTCT)”, the “recombinant barcode read abundance (log10)” value came to 0.125.

Take “GTGAAGACTTGGGTTCTAACCTGTTGCTT (site GTGAAGACTAA)”: the “recombinant barcode read abundance (log10)” value amounted to 1.41.

As to “GTGACCTCTTGGGTTCTAACCTGTTGCCT (site GCTACCTCTAG)”, the “recombinant barcode read abundance (log10)” value is 0.0896.

With “GTGACCTCTTGGGTTCTAACCTGTTGCCT (site GTGACCTCTAG)”, the “recombinant barcode read abundance (log10)” value was determined as 1.49.

“GTGAGAACTTGGGTTCTAACCTGTTGCCA (site CGTGACCCTCC)”: the “recombinant barcode read abundance (log10)” value stood at 0.0895.

In the case of “GTGAGAACTTGGGTTCTAACCTGTTGCCA (site GTGAGAACTTG)”, the “recombinant barcode read abundance (log10)” value came to 0.588.

“GTGAGCACTTGGGTTCTAACCTGTTGCGG (site GTGAGAGCTCC)”: the “recombinant barcode read abundance (log10)” value turned out to be 0.0559.

Turning to “GTGAGCACTTGGGTTCTAACCTGTTGCGG (site GTGAGCACTCC)”, the “recombinant barcode read abundance (log10)” value came to 1.84.

For “GTGAGGACTTGGGTTCTAACCTGTTGCCA (site GTAACGACTTG)”, the “recombinant barcode read abundance (log10)” value turned out to be 0.252.

In the case of “GTGAGGACTTGGGTTCTAACCTGTTGCCA (site GTGAGGACTTG)”, the “recombinant barcode read abundance (log10)” value was 1.53.

As for “GTGAGGTCTTGGGTTCTAACCTGTTGCTT (site GTGAGGTCTAA)”, the “recombinant barcode read abundance (log10)” value stood at 2.01.

As for “GTGAGGTCTTGGGTTCTAACCTGTTGCTT (site GTGAGGTCTAC)”, the “recombinant barcode read abundance (log10)” value turned out to be 0.229.

With “GTGAGGTCTTGGGTTCTAACCTGTTGCTT (site GTGAGGTCTAG)”, the “recombinant barcode read abundance (log10)” value is 1.46.

For the sequence “GTGAGGTCTTGGGTTCTAACCTGTTGCTT (site GTGAGGTCTAT)”, the “recombinant barcode read abundance (log10)” value was determined as 1.38.

For the sequence “GTGAGTGCTTGGGTTCTAACCTGTTGCCA (site ATAAGTGCTTG)”, the “recombinant barcode read abundance (log10)” value is 0.475.

Consider “GTGAGTGCTTGGGTTCTAACCTGTTGCCA (site GTGAGTGCTTG)”, for which the “recombinant barcode read abundance (log10)” value stood at 0.723.

Take “GTGATCCCTTGGGTTCTAACCTGTTGCAG (site GTGAACCCTCT)”: the “recombinant barcode read abundance (log10)” value worked out at 0.184.

With “GTGATCCCTTGGGTTCTAACCTGTTGCAG (site GTGATCCCTCT)”, the “recombinant barcode read abundance (log10)” value amounted to 1.79.

Turning to “GTGCAACCTTGGGTTCTAACCTGTTGCCT (site AGTGTCACTCC)”, the “recombinant barcode read abundance (log10)” value is 0.056.

For “GTGCAACCTTGGGTTCTAACCTGTTGCCT (site GTGCAACCTAG)”, the “recombinant barcode read abundance (log10)” value came to 1.34.

On to “GTGCACACTTGGGTTCTAACCTGTTGCCA (site GTGCAAACTAG)”, for which the “recombinant barcode read abundance (log10)” value came to 0.0839.

As for “GTGCACACTTGGGTTCTAACCTGTTGCCA (site GTGCACACTTG)”, the “recombinant barcode read abundance (log10)” value is 0.736.

“GTGCCCGCTTGGGTTCTAACCTGTTGCAG (site AAATGACCTAC)”: the “recombinant barcode read abundance (log10)” value came out at 0.0527.

“GTGCCCGCTTGGGTTCTAACCTGTTGCAG (site GTGCCCGCTCT)”: the “recombinant barcode read abundance (log10)” value was 0.961.

For the sequence “GTGCCCTCTTGGGTTCTAACCTGTTGCCG (site GTGCCCGCTCC)”, the “recombinant barcode read abundance (log10)” value was 0.0127.

“GTGCCCTCTTGGGTTCTAACCTGTTGCCG (site GTGCCCTCTCG)”: the “recombinant barcode read abundance (log10)” value was 1.66.

With “GTGCCTCCTTGGGTTCTAACCTGTTGCTT (site GTGCCTCCTAA)”, the “recombinant barcode read abundance (log10)” value was 1.01.

For the sequence “GTGCCTCCTTGGGTTCTAACCTGTTGCTT (site GTGTATCCTAA)”, the “recombinant barcode read abundance (log10)” value amounted to 0.0505.

As to “GTGCGCTCTTGGGTTCTAACCTGTTGCCG (site GTGAGCCCTCG)”, the “recombinant barcode read abundance (log10)” value was found to be 0.076.

As to “GTGCGCTCTTGGGTTCTAACCTGTTGCCG (site GTGCGCTCTCG)”, the “recombinant barcode read abundance (log10)” value amounted to 1.49.

Consider “GTGCGGACTTGGGTTCTAACCTGTTGCGT (site GTGAGGACTAC)”, for which the “recombinant barcode read abundance (log10)” value stood at 0.676.

For the sequence “GTGCGGACTTGGGTTCTAACCTGTTGCGT (site GTGCGGACTAC)”, the “recombinant barcode read abundance (log10)” value amounted to 2.06.

For “GTGCTCGCTTGGGTTCTAACCTGTTGCCT (site CTGCCCGCTAG)”, the “recombinant barcode read abundance (log10)” value was found to be 0.0812.

With “GTGCTCGCTTGGGTTCTAACCTGTTGCCT (site GTGCTCGCTAG)”, the “recombinant barcode read abundance (log10)” value turned out to be 1.87.

“GTGGAATCTTGGGTTCTAACCTGTTGCCT (site GTGAGATCTAG)”: the “recombinant barcode read abundance (log10)” value was determined as 0.307.

“GTGGAATCTTGGGTTCTAACCTGTTGCCT (site GTGGAATCTAG)”: the “recombinant barcode read abundance (log10)” value came out at 1.6.

Consider “GTGGACTCTTGGGTTCTAACCTGTTGCTA (site GTGGACTCTTA)”, for which the “recombinant barcode read abundance (log10)” value was found to be 2.44.

Regarding “GTGGACTCTTGGGTTCTAACCTGTTGCTA (site GTGTACTCTAA)”, the “recombinant barcode read abundance (log10)” value was determined as 0.0609.

In the case of “GTGGCCACTTGGGTTCTAACCTGTTGCCT (site GTAGCCACTAG)”, the “recombinant barcode read abundance (log10)” value is 1.86.

Take “GTGGCCACTTGGGTTCTAACCTGTTGCCT (site GTCGCCACTAG)”: the “recombinant barcode read abundance (log10)” value came to 0.152.

Take “GTGGCCACTTGGGTTCTAACCTGTTGCCT (site GTGGCCACTAG)”: the “recombinant barcode read abundance (log10)” value turned out to be 1.74.

On to “GTGGCCACTTGGGTTCTAACCTGTTGCCT (site GTTGCCACTAG)”, for which the “recombinant barcode read abundance (log10)” value was 0.229.

In the case of “GTGGGCACTTGGGTTCTAACCTGTTGCCT (site AGAAAGGCTGC)”, the “recombinant barcode read abundance (log10)” value turned out to be 0.166.

As for “GTGGGCACTTGGGTTCTAACCTGTTGCCT (site GTGGGCACTAG)”, the “recombinant barcode read abundance (log10)” value was 0.225.

For “GTGGTATCTTGGGTTCTAACCTGTTGCCT (site GTGGTAACTAG)”, the “recombinant barcode read abundance (log10)” value worked out at 0.268.

“GTGGTATCTTGGGTTCTAACCTGTTGCCT (site GTGGTACCTAG)”: the “recombinant barcode read abundance (log10)” value was 0.396.

For the sequence “GTGGTATCTTGGGTTCTAACCTGTTGCCT (site GTGGTAGCTAG)”, the “recombinant barcode read abundance (log10)” value stood at 0.312.

Consider “GTGGTATCTTGGGTTCTAACCTGTTGCCT (site GTGGTATCTAG)”, for which the “recombinant barcode read abundance (log10)” value was determined as 1.68.

“GTGTACCCTTGGGTTCTAACCTGTTGCAC (site AGTATAACTCA)”: the “recombinant barcode read abundance (log10)” value worked out at 0.132.

For the sequence “GTGTACCCTTGGGTTCTAACCTGTTGCAC (site GTGTACCCTGT)”, the “recombinant barcode read abundance (log10)” value came out at 2.35.

As to “GTGTACCCTTGGGTTCTAACCTGTTGCGA (site GTGTACCCTAC)”, the “recombinant barcode read abundance (log10)” value was found to be 0.129.

On to “GTGTACCCTTGGGTTCTAACCTGTTGCGA (site GTGTACCCTCC)”, for which the “recombinant barcode read abundance (log10)” value amounted to 0.0447.

Consider “GTGTACCCTTGGGTTCTAACCTGTTGCGA (site GTGTACCCTGC)”, for which the “recombinant barcode read abundance (log10)” value was 0.0937.

“GTGTACCCTTGGGTTCTAACCTGTTGCGA (site GTGTACCCTTC)”: the “recombinant barcode read abundance (log10)” value came out at 2.35.

Regarding “GTGTATACTTGGGTTCTAACCTGTTGCCT (site GTATATACTAG)”, the “recombinant barcode read abundance (log10)” value was found to be 1.12.

Regarding “GTGTATACTTGGGTTCTAACCTGTTGCCT (site GTCTATACTAG)”, the “recombinant barcode read abundance (log10)” value amounted to 0.173.

Take “GTGTATACTTGGGTTCTAACCTGTTGCCT (site GTGTATACTAG)”: the “recombinant barcode read abundance (log10)” value is 1.24.

“GTGTATACTTGGGTTCTAACCTGTTGCCT (site GTTTATACTAG)”: the “recombinant barcode read abundance (log10)” value stood at 0.075.

As for “GTGTCGCCTTGGGTTCTAACCTGTTGCCT (site GTGTCGCCTAC)”, the “recombinant barcode read abundance (log10)” value turned out to be 0.224.

As for “GTGTCGCCTTGGGTTCTAACCTGTTGCCT (site GTGTCGCCTAG)”, the “recombinant barcode read abundance (log10)” value stood at 0.845.

As for “GTGTCGCCTTGGGTTCTAACCTGTTGCGT (site GTGTCGCCTAC)”, the “recombinant barcode read abundance (log10)” value was 1.72.

Regarding “GTGTCGCCTTGGGTTCTAACCTGTTGCGT (site GTGTCGCCTAG)”, the “recombinant barcode read abundance (log10)” value came to 0.0604.

Turning to “GTGTCTCCTTGGGTTCTAACCTGTTGCAT (site GTGTATCCTAT)”, the “recombinant barcode read abundance (log10)” value turned out to be 0.162.

For the sequence “GTGTCTCCTTGGGTTCTAACCTGTTGCAT (site GTGTCTCCTAT)”, the “recombinant barcode read abundance (log10)” value was 1.54.

For the sequence “GTGTCTCCTTGGGTTCTAACCTGTTGCAT (site GTGTGTCCTAT)”, the “recombinant barcode read abundance (log10)” value worked out at 0.457.

Take “GTGTCTCCTTGGGTTCTAACCTGTTGCAT (site GTGTTTCCTAT)”: the “recombinant barcode read abundance (log10)” value was 0.243.

On to “GTGTGTTCTTGGGTTCTAACCTGTTGCCT (site GTGTGTACTAG)”, for which the “recombinant barcode read abundance (log10)” value was 1.15.

Turning to “GTGTGTTCTTGGGTTCTAACCTGTTGCCT (site GTGTGTCCTAG)”, the “recombinant barcode read abundance (log10)” value is 0.0466.

On to “GTGTGTTCTTGGGTTCTAACCTGTTGCCT (site GTGTGTGCTAG)”, for which the “recombinant barcode read abundance (log10)” value was 0.

In the case of “GTGTGTTCTTGGGTTCTAACCTGTTGCCT (site GTGTGTTCTAG)”, the “recombinant barcode read abundance (log10)” value amounted to 0.726.

With “GTGTTGCCTTGGGTTCTAACCTGTTGCCT (site GAGTTGCCTAG)”, the “recombinant barcode read abundance (log10)” value is 0.267.

For the sequence “GTGTTGCCTTGGGTTCTAACCTGTTGCCT (site GCGTTGCCTAG)”, the “recombinant barcode read abundance (log10)” value worked out at 0.392.

For “GTGTTGCCTTGGGTTCTAACCTGTTGCCT (site GGGTTGCCTAG)”, the “recombinant barcode read abundance (log10)” value is 0.0383.

Regarding “GTGTTGCCTTGGGTTCTAACCTGTTGCCT (site GTGTTGCCTAG)”, the “recombinant barcode read abundance (log10)” value was determined as 0.73.

For the sequence “GTTACCTCTTGGGTTCTAACCTGTTGCCT (site CAAGGTCCTCC)”, the “recombinant barcode read abundance (log10)” value stood at 0.0556.

“GTTACCTCTTGGGTTCTAACCTGTTGCCT (site GTTACCTCTAG)”: the “recombinant barcode read abundance (log10)” value was 0.859.

The values above are taken from the supplement of paper PMC11208160.
